Assay results taken from ChEMBL document CHEMBL1138794, “Influence of the linker in bispyridium compounds on the inhibition of human choline kinase” (J Med Chem, 2004).

What was measured:
Choline kinase alpha = Choline kinase alpha (Homo sapiens, UniProt P35790); assay: Inhibitory activity against human choline kinase enzyme
HT-29 = assay: Antiproliferative activity was determined using HT-29 human colon cancer cell line; type: functional, cell-based

Sequence of Choline kinase alpha (P35790 whole entry): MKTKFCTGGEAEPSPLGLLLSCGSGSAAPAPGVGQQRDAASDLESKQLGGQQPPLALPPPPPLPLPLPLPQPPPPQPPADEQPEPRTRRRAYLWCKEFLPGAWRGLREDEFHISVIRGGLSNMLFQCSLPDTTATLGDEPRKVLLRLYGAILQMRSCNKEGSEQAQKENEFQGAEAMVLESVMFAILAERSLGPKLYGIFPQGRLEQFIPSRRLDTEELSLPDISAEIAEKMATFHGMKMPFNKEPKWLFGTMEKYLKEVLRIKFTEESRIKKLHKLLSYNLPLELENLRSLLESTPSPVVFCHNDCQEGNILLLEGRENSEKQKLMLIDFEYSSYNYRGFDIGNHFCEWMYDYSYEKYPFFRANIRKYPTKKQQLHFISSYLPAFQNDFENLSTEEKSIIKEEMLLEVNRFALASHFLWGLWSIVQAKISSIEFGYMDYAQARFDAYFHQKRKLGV

SMILES | IC50 (Choline kinase alpha) [µM] | IC50 (HT-29) [µM]
c1c[n+](C[C@H]2C[C@@H]2C[n+]2ccc(N3CCCC3)cc2)ccc1N1CCCC1 | > 100 | > 100
CN(c1ccc(Cl)cc1)c1cc[n+](C[C@H]2C[C@@H]2C[n+]2ccc(N(C)c3ccc(Cl)cc3)cc2)cc1 | 48.2 | 24.3
CN(c1ccc(Cl)cc1)c1cc[n+](Cc2ccc(-c3ccc(C[n+]4ccc(N(C)c5ccc(Cl)cc5)cc4)cc3)cc2)cc1 | 1.8 | 0.49
c1cc(-c2ccc(C[n+]3ccc(N4CCCCC4)cc3)cc2)ccc1C[n+]1ccc(N2CCCCC2)cc1 | 8.8 | 4.2
CN(c1ccccc1)c1cc[n+](Cc2cccc(C[n+]3ccc(N(C)c4ccccc4)cc3)c2)cc1 | 37.5 | 5.1
c1cc(C[n+]2ccc(N3CCCCC3)cc2)cc(C[n+]2ccc(N3CCCCC3)cc2)c1 | 52.8 | 43
c1cc(C[n+]2ccc(N3CCCCC3)cc2)cc(-c2cccc(C[n+]3ccc(N4CCCCC4)cc3)c2)c1 |  | 1.6
CN(c1cc[n+](Cc2ccc(C[n+]3ccc(N(C)c4cc(Cl)cc(Cl)c4)cc3)cc2)cc1)c1cc(Cl)cc(Cl)c1 | 9.7 | 2.9
CN(c1cc[n+](Cc2cccc(C[n+]3ccc(N(C)c4cc(Cl)cc(Cl)c4)cc3)c2)cc1)c1cc(Cl)cc(Cl)c1 | 8.4 | 4
c1cc(C[n+]2ccc(N3CCCCC3)cc2)ccc1C[n+]1ccc(N2CCCCC2)cc1 | 37.7 | > 100
c1cc(C[n+]2ccc(N3CCCC3)cc2)cc(C[n+]2ccc(N3CCCC3)cc2)c1 | 84.2 | 50
CN(c1ccc(Cl)cc1)c1cc[n+](Cc2cccc(C[n+]3ccc(N(C)c4ccc(Cl)cc4)cc3)c2)cc1 | 7.2 | 3.3
CN(c1cc[n+](C[C@H]2C[C@@H]2C[n+]2ccc(N(C)c3cc(Cl)cc(Cl)c3)cc2)cc1)c1cc(Cl)cc(Cl)c1 | > 100 | 7.5
CN(c1ccccc1)c1cc[n+](Cc2ccc(C[n+]3ccc(N(C)c4ccccc4)cc3)cc2)cc1 | 15 | 6.81
CN(c1ccc(Cl)cc1)c1cc[n+](Cc2ccc(C[n+]3ccc(N(C)c4ccc(Cl)cc4)cc3)cc2)cc1 | 2.9 | 3.5
CN(c1ccccc1)c1cc[n+](Cc2ccc(-c3ccc(C[n+]4ccc(N(C)c5ccccc5)cc4)cc3)cc2)cc1 | 4.3 | 2
CN(c1cc[n+](Cc2cccc(-c3cccc(C[n+]4ccc(N(C)c5cc(Cl)cc(Cl)c5)cc4)c3)c2)cc1)c1cc(Cl)cc(Cl)c1 | 2.6 | 1.8
CN(c1ccccc1)c1cc[n+](Cc2cccc(-c3cccc(C[n+]4ccc(N(C)c5ccccc5)cc4)c3)c2)cc1 | 0.4 | 2.2
CN(c1ccccc1)c1cc[n+](C[C@H]2C[C@@H]2C[n+]2ccc(N(C)c3ccccc3)cc2)cc1 | > 100 | > 100
c1cc(-c2ccc(C[n+]3ccc(N4CCCC4)cc3)cc2)ccc1C[n+]1ccc(N2CCCC2)cc1 | 11.1 | 6.1
c1c[n+](C[C@H]2C[C@@H]2C[n+]2ccc(N3CCCCC3)cc2)ccc1N1CCCCC1 | 98 | 99
c1cc(C[n+]2ccc(N3CCCC3)cc2)ccc1C[n+]1ccc(N2CCCC2)cc1 | 24 | > 100
